Experiments:
[1] = molecular target: T1, NS3 genotype 1b protease (Hepatitis C virus genotype 1b, UniProt Q9WMX2, E1202G); experiment: Ki determination, NS3 protease genotype 1b (fluorogenic depsipeptide substrate); assay type: biochemical; details: NS3 protease domain genotype 1b, NS4A peptide
T1 construct: Purified NS3 protease domain (amino acids 1-181) of the genotype 1b and 3a virus were generated as above; K3 hexahistidine tag (N); rTEV protease cleavage site (N); made in house; host or cells: E. coli BL21AI
Excerpt: Ki Determination for Genotypes 1b and 3a NS3 Protease.
Purified NS3 protease domain (amino acids 1-181) of the genotype 1b and 3a virus were generated as above. The internally quenched fluorogenic depsipeptide substrate Ac-DED(Edans)-EEAbuψ[COO]ASK(Dabcyl)-NH2 and a synthetic peptide containing the hydrophobic core residues of the NS4A protein cofactor ([…]; NS4A peptide) were obtained from Anaspec, Inc. (San Jose, Calif.). Other chemicals and biochemicals were of reagent grade or better and were purchased from standard suppliers.
Reactions were run at room temperature in buffer consisting of 50 mM HEPES, 40% glycerol, 0.05% Triton X-100, 10 mM DTT, and 10% DMSO. The final assay solutions contained 50 pM NS3 genotype 1b protease or 200 pM genotype 3a protease, 20 μM NS4A peptide, and 4 μM substrate (genotype 1b) or 2 μM substrate (genotype 3a). Inhibitor concentrations varied from 100 nM to 5 pM in 3-fold dilutions, and no-inhibitor controls were included.
Compound dilutions were made in DMSO at 20× final concentration. Reaction mixtures were prepared in 96-well assay plates. A solution of enzyme and NS4A peptide in assay buffer (25 μL volume with both reagents at 4× final concentration) was mixed with 45 μL assay buffer and 5 μL of either inhibitor or DMSO, and pre-incubated at room temperature for 1 hour. The reaction was started by addition of 25 μL substrate solution at 4× final concentration. Plates were mixed vigorously for 5-10 seconds and reactions were allowed to proceed for 90 minutes. Fluorescence was measured every 30 s between 90 and 120 minutes reaction time using a Tecan InfiniTe M1000 or PerkinElmer Envision multimode plate reader with an excitation wavelength of 340 nm and an emission wavelength of 490 nm.
Rates were calculated from the progress curves at steady state, in the time frame of 90-120 minutes after addition of substrate. To determine the Ki, rates were plotted as a function of inhibitor concentration, and the data were fit with equation 1 (Morrison, J. F., Biochimica et Biophysica Acta 1969, 185, 269-286) to calculate Ki^app using GraphPad Prism 5. Active fraction of enzyme was determined by active site titration with known potent inhibitors. Ki was calculated from Ki^app/(1+[[S]/Km]).

[2] = test system: genotype 1b stable HCV replicon (Con1) in Huh-7-derived cells; experiment: Stable subgenomic HCV replicon, genotype 1b, Renilla luciferase; assay type: cell-based; details: Hepatitis C virus, stable replicon genotype 1b, 72 h, read-out: EC50 1B RLUC
Experimental: (§1) Antiviral potency (EC50) was determined in both stable subgenomic HCV replicon cell lines and transient-transfected HCV replicon cells. The term half maximal effective concentration (EC50) refers to the concentration of a drug which induces a response halfway between the baseline and maximum after the exposure time specified below.
(§2) Stable subgenomic HCV replicons for genotype 1a, 1b, 2a, 3a, and 4a were established in Huh-7-derived cells as described by Lohmann et al (Lohmann V, Korner F, Koch J, et al Replication of subgenomic hepatitis C virus RNAs in a hepatoma cell line. Science 1999; 285:119-3). Each stable cell line contains a bicistronic HCV replicon that encodes a humanized Renilla luciferase (hRLuc) reporter gene fused to a selectable neomycin-resistance gene, followed by an EMCV IRES and the NS3-NS5B coding region of HCV. […] Luciferase activity was measured as a marker for intracellular HCV replication levels.
(§3) The genotype 1a stable replicon was derived from the H77 HCV strain and contained adaptive mutations P1496L and S2204I. The genotype 1b stable replicon was derived from the Con1 HCV strain and contained adaptive mutations E1202G, T1280I, and K1846T. […] The genotype 3a stable replicon was derived from the S52 HCV strain and contained adaptive mutations P1121 L, A1198T and S2210I (equivalent to S2204I in genotype 1). The genotype 4a stable replicon was derived from the ED43 HCV strain and contained adaptive mutations Q1691R and S2204I. All replicon cell lines were propagated in Huh-7-derived cells and maintained in Dulbecco's modified Eagle's Medium (DMEM) supplemented with 10% fetal bovine serum (FBS) and 0.5 mg/ml G418.
(§4) To perform EC50 assays, cells from each HCV replicon were dispensed into 384-well plates. Compounds were dissolved in DMSO at a concentration of 10 mM and diluted in DMSO using an automated pipetting instrument. Three-fold serially diluted compounds were directly added to the cells using an automated instrument. DMSO was used as a negative (solvent; no inhibition) control, and a combination of three HCV inhibitors including a protease inhibitor; an NS5A inhibitor and a nucleoside inhibitor was used at concentrations >100×EC50 as a positive control (100% inhibition). Seventy-two hours later, cells were lysed and Renilla luciferase activity were quantified as recommended by the manufacturer (Promega-Madison, Wis.). Non-linear regression was performed to calculate […], values.

[3] = test system: NS3/4a protease inhibitor resistant variant D168A in genotype 1b transient HCV replicon; experiment: Transient-transfected HCV replicon, genotype 1b D168A; assay type: cell-based; details: Hepatitis C virus, 72 h, read-out: EC50 1B D168A
[4] = test system: genotype 3a stable HCV replicon (S52) in Huh-7-derived cells; experiment: Stable subgenomic HCV replicon, genotype 3a, Renilla luciferase; assay type: cell-based; details: Hepatitis C virus, 72 h, read-out: EC50 3A RLUC
Experimental: as §1, §2, §3, §4

[5] = test system: genotype 2a stable HCV replicon (JFH-1) in Huh-7-derived cells; experiment: Stable subgenomic HCV replicon, genotype 2a, Renilla luciferase; assay type: cell-based; details: Hepatitis C virus, stable replicon genotype 2a, 72 h, read-out: EC50 2A RLUC
Experimental: as §1, §2, §3, §4

[6] = test system: NS3/4a protease inhibitor resistant variant R155K in genotype 1a transient HCV replicon; experiment: Transient-transfected HCV replicon, genotype 1a R155K; assay type: cell-based; details: Hepatitis C virus, 72 h, read-out: EC50 1A R155K
[7] = test system: genotype 1a stable HCV replicon (H77) in Huh-7-derived cells; experiment: Stable subgenomic HCV replicon, genotype 1a, Renilla luciferase; assay type: cell-based; details: Hepatitis C virus, stable replicon genotype 1a, 72 h, read-out: EC50 1A RLUC
Experimental: as §1, §2, §3, §4

[8] = test system: genotype 3a transient HCV replicon (S52) in Huh-7-derived cells; experiment: Transient-transfected HCV replicon, genotype 3a wild type; assay type: cell-based; details: Hepatitis C virus; transient-transfected replicon genotype 3a wild type, 72 h; read-out: EC50 3A WT
[9] = test system: genotype 4a stable HCV replicon (ED43) in Huh-7-derived cells; experiment: Stable subgenomic HCV replicon, genotype 4a, Renilla luciferase; assay type: cell-based; details: Hepatitis C virus, 72 h, read-out: EC50 4A RLUC
Experimental: as §1, §2, §3, §4

T1 sequence (Q9WMX2 1027-1207 E1202G, other chains not shown): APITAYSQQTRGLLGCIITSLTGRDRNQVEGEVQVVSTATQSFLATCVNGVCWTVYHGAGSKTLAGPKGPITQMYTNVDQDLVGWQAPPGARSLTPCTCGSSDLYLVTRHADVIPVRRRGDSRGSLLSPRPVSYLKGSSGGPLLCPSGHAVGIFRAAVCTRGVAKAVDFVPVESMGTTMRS

`COc1ccc2nc3c(nc2c1)O[C@@H]1C[C@@H](C(=O)N[C@]2(C(=O)NS(=O)(=O)C4CC4)C[C@H]2C(F)F)N(C1)C(=O)[C@H](C(C)(C)C)NC(=O)O[C@@H]1C[C@@H]2C[C@@H]2[C@H]1CCCCC3(F)F` (racemic) [Example 9, (1aS,2aR,6S,9S,11R,23aR,23bS)-6-tert-butyl-N-[(1R,2R)-1-[(cyclopropylsulfonyl)carbamoyl]-2-(difluoromethyl)cyclopropyl]-19,19-difluoro-15-methoxy-4,7-dioxo-1a,2,2a,4,5,6,7,10,11,19,20,21,22,23,23a,23b-hexadecahydro-1H,9H-8,11-methanocyclopropa[4′,5′]cyclopenta[1′,2′:18,19][1,10,3,6]dioxadiazacyclononadecino[11,12-b]quinoxaline-9-carboxamide] showed a Ki [1] of 0.02 nM, an EC50 [2] of 1.5 nM and an EC50 [3] of 1.1 nM. For the same compound, the EC50 [4] was 6.6 nM, the EC50 [5] was 2.3 nM and the EC50 [6] was 1.1 nM. It also gave an EC50 [7] of 1.7 nM, an EC50 [8] of 2.5 nM and an EC50 [9] of 1.4 nM.
`CC(C)(C)[C@@H]1NC(=O)O[C@@H]2C[C@@H]3C[C@@H]3[C@H]2CCCCC(F)(F)c2nc3cc(F)c(F)cc3nc2O[C@@H]2C[C@@H](C(=O)N[C@]3(C(=O)NS(=O)(=O)C4CC4)C[C@H]3C(F)F)N(C2)C1=O` (racemic) [Example 15, (1aS,2aR,6S,9S,11R,23aR,23bS)-6-tert-butyl-N-[(1R,2R)-1-[(cyclopropylsulfonyl)carbamoyl]-2-(difluoromethyl)cyclopropyl]-15,16,19,19-tetrafluoro-4,7-dioxo-1a,2,2a,4,5,6,7,10,11,19,20,21,22,23,23a,23b-hexadecahydro-1H,9H-8,11-methanocyclopropa[4′,5′]cyclopenta[1′,2′:18,19][1,10,3,6]dioxadiazacyclononadecino[11,12-b]quinoxaline-9-carboxamide] gave a Ki [1] of 0.03 nM, an EC50 [2] of 3.4 nM and an EC50 [3] of 4.7 nM. The EC50 [4] was 30 nM, the EC50 [5] was 3.3 nM and the EC50 [6] was 1.2 nM. For the same compound, the EC50 [7] was 3.5 nM, the EC50 [8] was 11 nM and the EC50 [9] was 2.6 nM.
In the case of `COc1ccc2nc3c(nc2c1)O[C@@H]1C[C@@H](C(=O)N[C@]2(C(=O)NS(=O)(=O)C4CC4)C[C@H]2C(F)F)N(C1)C(=O)[C@H](C(C)(C)C)NC(=O)O[C@@H]1C[C@@H]2C[C@@H]2[C@H]1CCCCC3` [Example 1, (1aS,2aR,6S,9S,11R,23aR,23bS)-6-tert-butyl-N-[(1R,2R)-1-[(cyclopropylsulfonyl)carbamoyl]-2-(difluoromethyl)cyclopropyl]-15-methoxy-4,7-dioxo-1a,2,2a,4,5,6,7,10,11,19,20,21,22,23,23a,23b-hexadecahydro-1H,9H-8,11-methanocyclopropa[4′,5′]cyclopenta[1′,2′:18,19][1,10,3,6]dioxadiazacyclononadecino[11,12-b]quinoxaline-9-carboxamide], the Ki [1] is reported as 0.02 nM, the EC50 [2] is reported as 0.99 nM and the EC50 [3] is reported as 4.6 nM. It also gave an EC50 [4] of 23 nM, an EC50 [5] of 2.5 nM and an EC50 [6] of 1.5 nM. For the same compound, the EC50 [7] was 1.1 nM, the EC50 [8] was 7.1 nM and the EC50 [9] was 1 nM.
With `COc1ccc2nc3c(nc2c1)O[C@@H]1C[C@@H](C(=O)N[C@]2(C(=O)NS(=O)(=O)C4(C)CC4)C[C@H]2C(F)F)N(C1)C(=O)[C@H](C(C)(C)C)NC(=O)O[C@@H]1C[C@@H]2C[C@@H]2[C@H]1CCCCC3` [Example 2, (1aS,2aR,6S,9S,11R,23aR,23bS)-6-tert-butyl-N-[(1R,2R)-2-(difluoromethyl)-1-{[(1-methylcyclopropyl)sulfonyl]carbamoyl}cyclopropyl]-15-methoxy-4,7-dioxo-1a,2,2a,4,5,6,7,10,11,19,20,21,22,23,23a,23b-hexadecahydro-1H,9H-8,11-methanocyclopropa[4′,5′]cyclopenta[1′,2′18,19][1,10,3,6]dioxadiazacyclononadecino[11,12-b]quinoxaline-9-carboxamide] the Ki [1] was 0.02 nM, the EC50 [2] was 1 nM and the EC50 [3] was 3.2 nM. It also gave an EC50 [4] of 17 nM, an EC50 [5] of 1.82 nM and an EC50 [6] of 1.4 nM. For the same compound, the EC50 [7] was 1.1 nM, the EC50 [8] was 5.1 nM and the EC50 [9] was 1.2 nM.
Compound `COc1ccc2nc3c(nc2c1)O[C@@H]1C[C@@H](C(=O)N[C@]2(C(=O)NS(=O)(=O)C4CC4)C[C@H]2CC(F)F)N(C1)C(=O)[C@H](C(C)(C)C)NC(=O)O[C@@H]1C[C@@H]2C[C@@H]2[C@H]1CCCCC3` [Example 3, (1aS,2aR,6S,9S,11R,23aR,23bS)-6-tert-butyl-N-[(1R,2S)-1-[(cyclopropylsulfonyl)carbamoyl]-2-(2,2-difluoroethyl)cyclopropyl]-15-methoxy-4,7-dioxo-1a,2,2a,4,5,6,7,10,11,19,20,21,22,23,23a,23b-hexadecahydro-1H,9H-8,11-methanocyclopropa[4′,5′]cyclopenta[1′,2′:18,19][1,10,3,6]dioxadiazacyclononadecino[11,12-b]quinoxaline-9-carboxamide] has a Ki [1] of 0.03 nM, an EC50 [2] of 3.2 nM and an EC50 [3] of 50 nM. The EC50 [4] was 194 nM, the EC50 [5] was 15 nM and the EC50 [6] was 11 nM. It also gave an EC50 [7] of 3.8 nM, an EC50 [8] of 67 nM and an EC50 [9] of 3.4 nM.
